The source made the active and inactive calls. The rule behind the calls is not given here.
Legend:
HeLa [1] = assay: Induction of DNA damage in human HeLa cells after 1 hr in presence of antioxidant epicatechin by alkaline comet assay relative to control; assay type: functional, cell-based
Escherichia coli [2] = assay: Induction of Escherichia coli pUC19 DNA damage assessed as increase in linear DNA forms after 1 hr by agarose gel electrophoresis
HeLa [3] = assay: Induction of DNA damage in human HeLa cells incubated for 1 hr followed by repair incubation for 120 mins by alkaline comet assay; assay type: functional, cell-based
HeLa [4] = assay: Induction of oxidative stress in human HeLa cells assessed as reduction in GSH level after 1 hr by MBCL probe based flow cytometry relative to control; assay type: functional; set-up: scale not given: the % may be the effect or the level left
HeLa [5] = assay: Induction of DNA damage in human HeLa cells after 1 hr in presence of antioxidant vitamin E by alkaline comet assay relative to control; assay type: functional, cell-based
HeLa [6] = assay: Effect on NCOA7 mRNA expression in human HeLa cells after 4 hrs by RT-PCR method relative to control; assay type: functional
HeLa [7] = assay: Geno-toxicity in human HeLa cells assessed as induction of DNA damage by measuring increase in double stranded DNA breaks at 5.6 to 69 uM after 1 hr by neutral comet assay; assay type: functional, cell-based
HeLa [8] = assay: Effect on SOD1 mRNA expression in human HeLa cells after 4 hrs by RT-PCR method relative to control; assay type: functional
HeLa [9] = assay: Effect on GPX4 mRNA expression in human HeLa cells after 4 hrs by RT-PCR method relative to control; assay type: functional
HeLa [10] = assay: Geno-toxicity in human HeLa cells assessed as induction of DNA damage by measuring increase in incomplete excision repair sites at pH 12.1 after 1 hr by comet assay; assay type: functional, cell-based
HeLa [11] = assay: Effect on NOX4 mRNA expression in human HeLa cells after 4 hrs by RT-PCR method relative to control; assay type: functional
HeLa [12] = assay: Induction of oxidative stress in human HeLa cells assessed as reduction in thioredoxin reductase at IC50 after 14 hrs by DTNB/bradford reagent based colorimetric method; assay type: functional; set-up: scale not given: the % may be the effect or the level left
HeLa [13] = assay: Effect on TXN mRNA expression in human HeLa cells after 4 hrs by RT-PCR method relative to control; assay type: functional
HeLa [14] = assay: Effect on NOX5 mRNA expression in human HeLa cells after 4 hrs by RT-PCR method relative to control; assay type: functional
HeLa [15] = assay: Upregulation of CAT mRNA expression in human HeLa cells after 4 hrs by RT-PCR method; assay type: functional, cell-based
HeLa [16] = assay: Geno-toxicity in human HeLa cells assessed as induction of DNA damage after 1 hr by alkaline comet assay; assay type: functional, cell-based
Escherichia coli [17] = assay: Induction of Escherichia coli pUC19 DNA damage assessed as increase in open circular DNA forms after 1 hr by agarose gel electrophoresis
HeLa [18] = assay: Effect on HMOX mRNA expression in human HeLa cells after 4 hrs by RT-PCR method relative to control; assay type: functional
HeLa [19] = assay: Upregulation of GPX1 mRNA expression in human HeLa cells after 4 hrs by RT-PCR method; assay type: functional, cell-based
HeLa [20] = assay: Induction of ROS production in human HeLa cells after 1 hr by CM-H2DCFDA probe based fluorescence assay; assay type: functional, cell-based
HeLa [21] = assay: Effect on GCLM mRNA expression in human HeLa cells after 4 hrs by RT-PCR method relative to control; assay type: functional
HeLa [22] = assay: Effect on SOD2 mRNA expression in human HeLa cells after 4 hrs by RT-PCR method relative to control; assay type: functional
HeLa [23] = assay: Induction of DNA damage in human HeLa cells assessed as increase in DNA lessions at 37 degreeC incubation for 120 mins by alkaline comet assay relative to control; assay type: functional, cell-based
HeLa [24] = assay: Induction of nitric oxide production in human HeLa cells after 1 hr by DAF2-DA probe based fluorescence assay; assay type: functional, cell-based
HeLa [25] = assay: Effect on NQO1 mRNA expression in human HeLa cells after 4 hrs by RT-PCR method relative to control; assay type: functional
HeLa [26] = assay: Geno-toxicity in human HeLa cells assessed as induction of DNA damage by measuring increase in single strand breaks after 1 hr by comet assay; assay type: functional, cell-based
HeLa [27] = assay: Induction of DNA damage in human HeLa cells assessed as increase in DNA lessions at 4 degreeC incubation for 120 mins by alkaline comet assay relative to control; assay type: functional, cell-based
Escherichia coli [28] = assay: Induction of Escherichia coli pUC19 DNA damage assessed as decrease in supercoiled covalently closed circular DNA forms after 1 hr by agarose gel electrophoresis
HeLa [29] = assay: Geno-toxicity in human HeLa cells assessed as induction of DNA damage by measuring increase in double stranded DNA breaks at 69 to 550 uM after 1 hr by neutral comet assay; assay type: functional, cell-based
HeLa [30] = assay: Geno-toxicity in human HeLa cells assessed as induction of DNA damage by measuring increase in double stranded DNA breaks at 17 to 137 uM after 1 hr by neutral comet assay; assay type: functional, cell-based

Structure (SMILES)	Activity (HeLa [1])	Activity (Escherichia coli [2])	Activity (HeLa [3])	Activity (HeLa [4])	Activity (HeLa [5])	fold change (FC) (HeLa [6])	fold change (FC) (HeLa [8])	fold change (FC) (HeLa [9])	Activity (HeLa [10])	fold change (FC) (HeLa [11])	Activity (HeLa [12]) [%]	fold change (FC) (HeLa [13])	fold change (FC) (HeLa [14])	Activity (HeLa [15])	Activity (HeLa [16])	Activity (Escherichia coli [17])	fold change (FC) (HeLa [18])	Activity (HeLa [19])	Activity (HeLa [20])	fold change (FC) (HeLa [21])	further results
CC(=O)OC[C@H]1O[C@@H](S[C@@H]2CC(=O)[C@@H]3OC[C@H]2O3)[C@H](OC(C)=O)[C@@H](OC(C)=O)[C@@H]1OC(C)=O	inactive	inactive	inactive	20%	inactive	0.43	1.18	1.15	Dose-dependent effect	0.58	18.3	0.76	0.53	Active	Dose-dependent effect	inactive	20.29	Active	Active	2.21	Activity (HeLa [7]): inactive; fold change (FC) (HeLa [22]): 1.56; Activity (HeLa [23]): Active; Activity (HeLa [24]): inactive; fold change (FC) (HeLa [25]): 1.34; Activity (HeLa [26]): Dose-dependent effect; Activity (HeLa [27]): inactive; Activity (Escherichia coli [28]): inactive
O=C1C[C@@H](S[C@@H]2O[C@H](CO)[C@@H](O)[C@H](O)[C@H]2O)[C@H]2CO[C@@H]1O2	inactive	inactive	inactive	Active	inactive	0.35	1.16	0.56	Dose-dependent effect	0.68	3.86	0.94	0.34	Active	Dose-dependent effect	inactive	7.29	Active	Active	1.95	fold change (FC) (HeLa [22]): 1.25; Activity (HeLa [23]): Active; Activity (HeLa [24]): inactive; fold change (FC) (HeLa [25]): 1.27; Activity (HeLa [26]): Dose-dependent effect; Activity (HeLa [27]): inactive; Activity (HeLa [29]): inactive; Activity (Escherichia coli [28]): inactive
CC(=O)OC[C@H]1O[C@@H](S[C@@H]2CC(=O)[C@@H]3OC[C@H]2O3)[C@H](OC(C)=O)[C@@H](OC(C)=O)[C@H]1OC(C)=O	inactive	inactive	inactive	60%	inactive	0.37	1.07	0.75	Dose-dependent effect	0.74	9.2	1.07	0.68	Active	Dose-dependent effect	inactive	10.53	Active	Active	1.77	fold change (FC) (HeLa [22]): 1.26; Activity (HeLa [23]): Active; Activity (HeLa [24]): inactive; fold change (FC) (HeLa [25]): 1.36; Activity (HeLa [26]): Dose-dependent effect; Activity (HeLa [27]): inactive; Activity (HeLa [29]): inactive; Activity (Escherichia coli [28]): inactive
O=C(O)c1ccccc1S[C@@H]1CC(=O)[C@@H]2OC[C@H]1O2	inactive	inactive	inactive	Active	inactive	0.51	1.12	0.56	Dose-dependent effect	1.13	7.5	0.93	0.56	Active	Dose-dependent effect	inactive	3.42	Active	Active	1.56	Activity (HeLa [30]): inactive; fold change (FC) (HeLa [22]): 1.28; Activity (HeLa [23]): Active; Activity (HeLa [24]): inactive; fold change (FC) (HeLa [25]): 1.61; Activity (HeLa [26]): Dose-dependent effect; Activity (HeLa [27]): inactive; Activity (Escherichia coli [28]): inactive

Reference: ChEMBL document CHEMBL3997812, “The induction of oxidative stress in cervix carcinoma cells by levoglucosenone derived 4-S-salicyl derivative and (1-4)-S-thio-disaccharides. Part 4” (2017)
